According to article PMC5218480 (PLoS ONE, 2017):

System: MV-4-11 cells
Experiment: Gene expression microarray analysis (Affymetrix PrimeView) and GSEA
Format: cell-based, human
Parameters: RFU PODN (11730768_x_at) / Fold change /veh PODN (11730768_x_at) / RFU LINC00158 (11744669_a_at) / Fold change /veh LINC00158 (11744669_a_at) / RFU DUSP10 (11751237_a_at) / Fold change /veh DUSP10 (11751237_a_at) / RFU ID3 (11757404_x_at) / Fold change /veh ID3 (11757404_x_at) / RFU PLEKHG5 (11737974_s_at) / Fold change /veh PLEKHG5 (11737974_s_at) / RFU LRRC4B (11730491_at) / Fold change /veh LRRC4B (11730491_at) / RFU GIMAP4 (11747438_a_at) / Fold change /veh GIMAP4 (11747438_a_at) / RFU KRT8 (11758183_x_at) / Fold change /veh KRT8 (11758183_x_at) / RFU CNN1 (11734310_a_at) / Fold change /veh CNN1 (11734310_a_at) / RFU VPS37D (11726825_at) / Fold change /veh VPS37D (11726825_at) / RFU C10orf10 (11716522_x_at) / Fold change /veh C10orf10 (11716522_x_at) / RFU KIR2DL2 /// KIR2DL4 /// KIR2DL5A /// KIR2DL5B /// KIR2DS1 /// KIR2DS2 /// KIR2DS3 /// KIR2DS4 /// KIR3DL3 /// KIR3DL3 /// KIR3DS1 (11738374_at) / Fold change /veh KIR2DL2 /// KIR2DL4 /// KIR2DL5A /// KIR2DL5B /// KIR2DS1 /// KIR2DS2 /// KIR2DS3 /// KIR2DS4 /// KIR3DL3 /// KIR3DL3 /// KIR3DS1 (11738374_at) / RFU C1QL1 (11718748_at) / Fold change /veh C1QL1 (11718748_at) / RFU TMPRSS4 (11747572_a_at) / Fold change /veh TMPRSS4 (11747572_a_at) / RFU HAMP (11756126_x_at) / Fold change /veh HAMP (11756126_x_at) / RFU RNFT2 (11725882_a_at) / Fold change /veh RNFT2 (11725882_a_at) / RFU NR4A2 (11747474_a_at) / Fold change /veh NR4A2 (11747474_a_at) / RFU ABCC12 (11746883_a_at) / Fold change /veh ABCC12 (11746883_a_at) / RFU TMEM136 (11760407_x_at) / Fold change /veh TMEM136 (11760407_x_at) / RFU CLDN22 /// WWC2 (11732394_at) / Fold change /veh CLDN22 /// WWC2 (11732394_at) / RFU HLA-DPB1 (11760878_x_at) / Fold change /veh HLA-DPB1 (11760878_x_at) / RFU SPINT1 (11716480_a_at) / Fold change /veh SPINT1 (11716480_a_at) / RFU GAP43 (11754022_s_at) / Fold change /veh GAP43 (11754022_s_at) / RFU A4GNT (11735810_at) / Fold change /veh A4GNT (11735810_at) / RFU PRB3 (11715151_x_at) / Fold change /veh PRB3 (11715151_x_at) / RFU TUBB4B (11761932_at) / Fold change /veh TUBB4B (11761932_at) / RFU CAPN14 (11732068_a_at) / Fold change /veh CAPN14 (11732068_a_at) / RFU TMCC2 (11721928_a_at) / Fold change /veh TMCC2 (11721928_a_at) / RFU IRGQ (11745062_a_at) / Fold change /veh IRGQ (11745062_a_at) / RFU FAM174B (11720279_a_at) / Fold change /veh FAM174B (11720279_a_at) / RFU TMPRSS4 (11748680_a_at) / Fold change /veh TMPRSS4 (11748680_a_at) / RFU FAM212B (11763350_a_at) / Fold change /veh FAM212B (11763350_a_at) / RFU PLEKHG5 (11743358_a_at) / Fold change /veh PLEKHG5 (11743358_a_at) / RFU ZSCAN30 (11745921_a_at) / Fold change /veh ZSCAN30 (11745921_a_at) / RFU CMKLR1 (11741424_a_at) / Fold change /veh CMKLR1 (11741424_a_at) / RFU LOC101060620 /// MAPK8IP1 (11723275_at) / Fold change /veh LOC101060620 /// MAPK8IP1 (11723275_at) / RFU SPTSSB (11747773_x_at) / Fold change /veh SPTSSB (11747773_x_at) / RFU PRSS12 (11739890_at) / Fold change /veh PRSS12 (11739890_at) / RFU BIN1 (11741810_x_at) / Fold change /veh BIN1 (11741810_x_at) / RFU WNT11 (11732464_a_at) / Fold change /veh WNT11 (11732464_a_at) / RFU C10orf10 (11716521_a_at) / Fold change /veh C10orf10 (11716521_a_at) / RFU C5orf56 (11738089_at) / Fold change /veh C5orf56 (11738089_at) / RFU CYB561 (11721691_x_at) / Fold change /veh CYB561 (11721691_x_at) / RFU ANKRD19P (11752326_a_at) / Fold change /veh ANKRD19P (11752326_a_at) / RFU OR2T12 /// OR2T33 /// OR2T8 (11738714_s_at) / Fold change /veh OR2T12 /// OR2T33 /// OR2T8 (11738714_s_at) / RFU VCAN (11748164_a_at) / Fold change /veh VCAN (11748164_a_at) / RFU JSRP1 (11732532_at) / Fold change /veh JSRP1 (11732532_at) / RFU KRTAP10-11 (11738290_x_at) / Fold change /veh KRTAP10-11 (11738290_x_at) / RFU MYO3A (11730013_a_at) / Fold change /veh MYO3A (11730013_a_at) / RFU EBF3 (11725865_a_at) / Fold change /veh EBF3 (11725865_a_at) / RFU CAMK2N1 (11719241_x_at) / Fold change /veh CAMK2N1 (11719241_x_at) / RFU C5orf56 (11738088_a_at) / Fold change /veh C5orf56 (11738088_a_at) / RFU OLFML3 (11715873_a_at) / Fold change /veh OLFML3 (11715873_a_at) / RFU LOC100653217 /// NTM (11731650_a_at) / Fold change /veh LOC100653217 /// NTM (11731650_a_at) / RFU MAPK11 (11762145_a_at) / Fold change /veh MAPK11 (11762145_a_at) / RFU FIZ1 (11724087_x_at) / Fold change /veh FIZ1 (11724087_x_at) / RFU OASL (11726364_x_at) / Fold change /veh OASL (11726364_x_at) / RFU SOX15 (11748057_x_at) / Fold change /veh SOX15 (11748057_x_at) / RFU CD79A (11719716_a_at) / Fold change /veh CD79A (11719716_a_at) / RFU HIST1H1D (11736915_at) / Fold change /veh HIST1H1D (11736915_at) / RFU CASKIN2 (11723855_a_at) / Fold change /veh CASKIN2 (11723855_a_at) / RFU LOC730098 (11760151_x_at) / Fold change /veh LOC730098 (11760151_x_at) / RFU OR4N2 (11742367_at) / Fold change /veh OR4N2 (11742367_at) / RFU PRRT2 (11749266_a_at) / Fold change /veh PRRT2 (11749266_a_at) / RFU SNX32 (11753110_a_at) / Fold change /veh SNX32 (11753110_a_at) / RFU CDHR5 (11726645_a_at) / Fold change /veh CDHR5 (11726645_a_at) / RFU RCAN1 (11760418_a_at) / Fold change /veh RCAN1 (11760418_a_at) / RFU FAM167A (11723789_a_at) / Fold change /veh FAM167A (11723789_a_at) / RFU FAM26E (11764081_at) / Fold change /veh FAM26E (11764081_at) / RFU ISYNA1 (11749810_s_at) / Fold change /veh ISYNA1 (11749810_s_at) / RFU ACY1 (11761880_at) / Fold change /veh ACY1 (11761880_at) / RFU 11764098_at / Fold change /veh 11764098_at / RFU SAMD14 (11745864_x_at) / Fold change /veh SAMD14 (11745864_x_at) / RFU NPB (11741838_a_at) / Fold change /veh NPB (11741838_a_at) / RFU TMPRSS6 (11731388_a_at) / Fold change /veh TMPRSS6 (11731388_a_at) / RFU KRTAP10-2 (11738614_at) / Fold change /veh KRTAP10-2 (11738614_at) / RFU ARHGAP8 /// PRR5-ARHGAP8 (11727945_x_at) / Fold change /veh ARHGAP8 /// PRR5-ARHGAP8 (11727945_x_at) / RFU KRTAP5-7 /// NADSYN1 (11734609_at) / Fold change /veh KRTAP5-7 /// NADSYN1 (11734609_at) / RFU RASL12 (11751679_a_at) / Fold change /veh RASL12 (11751679_a_at) / RFU CDKN2B (11736163_a_at) / Fold change /veh CDKN2B (11736163_a_at) / RFU PRF1 (11729649_at) / Fold change /veh PRF1 (11729649_at) / RFU, ZNF638 /// ZNF638-IT1 / Fold change vs veh, ZNF638 /// ZNF638-IT1 / RFU, PANK3 / Fold change vs veh, PANK3 / RFU, SH3YL1 / Fold change vs veh, SH3YL1 / RFU, ZEB2 / Fold change vs veh, ZEB2 / RFU, NRIP1 / Fold change vs veh, NRIP1 / RFU, PTTG1IP / Fold change vs veh, PTTG1IP / RFU, CAPN2 / Fold change vs veh, CAPN2 / RFU, MED14 / Fold change vs veh, MED14 / RFU, SNORA58 / Fold change vs veh, SNORA58 / RFU, C1orf63 / Fold change vs veh, C1orf63 / RFU, LRRFIP1 / Fold change vs veh, LRRFIP1 / RFU, NDUFAF7 / Fold change vs veh, NDUFAF7 / RFU, SLC12A2 / Fold change vs veh, SLC12A2 / RFU, IBTK / Fold change vs veh, IBTK / RFU, ESF1 / Fold change vs veh, ESF1 / Fold change vs veh, TMEM50B / RFU, TAOK1 / Fold change vs veh, TAOK1 / RFU, ACBD3 / Fold change vs veh, ACBD3 / RFU, TMA16 / Fold change vs veh, TMA16 / RFU, RWDD3 / Fold change vs veh, RWDD3 / RFU, BCAT1 / Fold change vs veh, BCAT1 / RFU, EDEM3 / Fold change vs veh, EDEM3 / RFU, TMEM33 / Fold change vs veh, TMEM33 / RFU, WDR75 / Fold change vs veh, WDR75 / RFU, AHCTF1 / Fold change vs veh, AHCTF1 / RFU, TFRC / Fold change vs veh, TFRC / RFU, ZDHHC17 / Fold change vs veh, ZDHHC17 / RFU, NOM1 / Fold change vs veh, NOM1 / RFU, ARL8B / Fold change vs veh, ARL8B / RFU, ZBTB11 / Fold change vs veh, ZBTB11 / RFU, TAMM41 / Fold change vs veh, TAMM41 / RFU, KIAA1704 /// LOC100996395 / Fold change vs veh, KIAA1704 /// LOC100996395 / RFU, ING1 / Fold change vs veh, ING1 / RFU, TRMT61B / Fold change vs veh, TRMT61B / RFU, FUBP3 / Fold change vs veh, FUBP3 / RFU, TP53 / Fold change vs veh, TP53 / RFU, TNKS2 / Fold change vs veh, TNKS2 / RFU, ZFP14 / Fold change vs veh, ZFP14 / RFU, ACTR2 / Fold change vs veh, ACTR2 / RFU, PPP3R1 / Fold change vs veh, PPP3R1 / RFU, PIK3R1 / Fold change vs veh, PIK3R1 / RFU, HNRNPA1 / Fold change vs veh, HNRNPA1 / RFU, RNF170 / Fold change vs veh, RNF170 / RFU, ZNF28 / Fold change vs veh, ZNF28 / RFU, RNGTT / Fold change vs veh, RNGTT / RFU, OGT / Fold change vs veh, OGT / RFU, BRD1 / Fold change vs veh, BRD1 / RFU, MARS / Fold change vs veh, MARS / RFU, ZNF655 / Fold change vs veh, ZNF655 / RFU, FAHD1 / Fold change vs veh, FAHD1 / RFU, BDP1 / Fold change vs veh, BDP1 / RFU, LRRCC1 / Fold change vs veh, LRRCC1 / RFU, ARID1A / Fold change vs veh, ARID1A / RFU, ZNF146 / Fold change vs veh, ZNF146 / RFU, ZNF330 / Fold change vs veh, ZNF330 / RFU, GPN3 / Fold change vs veh, GPN3 / RFU, C9orf123 / Fold change vs veh, C9orf123 / RFU, N4BP2L2 / Fold change vs veh, N4BP2L2 / RFU, ARFIP1 / Fold change vs veh, ARFIP1 / RFU, FAM179B / Fold change vs veh, FAM179B / RFU, BCL10 / Fold change vs veh, BCL10 / RFU, UHRF1BP1L / Fold change vs veh, UHRF1BP1L / RFU, BET1 / Fold change vs veh, BET1 / RFU, CNOT2 / Fold change vs veh, CNOT2 / RFU, ZNF268 / Fold change vs veh, ZNF268 / Fold change vs veh, ZNF507 / RFU, DGCR2 / Fold change vs veh, DGCR2 / RFU, WDSUB1 / Fold change vs veh, WDSUB1 / Fold change vs veh, HSP90B1 /// MIR3652 / RFU, ADSS / Fold change vs veh, ADSS / RFU, GK / Fold change vs veh, GK / RFU, ZNF148 / Fold change vs veh, ZNF148 / RFU, TAF9 / Fold change vs veh, TAF9 / RFU, SLC1A5 / Fold change vs veh, SLC1A5 / RFU, SLMO2 / Fold change vs veh, SLMO2 / RFU, ABCC4 / Fold change vs veh, ABCC4 / RFU, LOC101060439 /// RAP1B / Fold change vs veh, LOC101060439 /// RAP1B / RFU, RFX7 / Fold change vs veh, RFX7 / RFU, GTPBP10 / Fold change vs veh, GTPBP10 / RFU, CNEP1R1 / Fold change vs veh, CNEP1R1 / RFU, BIVM-ERCC5 /// ERCC5 / Fold change vs veh, BIVM-ERCC5 /// ERCC5 / RFU, ILF3 / Fold change vs veh, ILF3 / RFU 11762660_at / Fold change /veh 11762660_at / RFU VCAN (11757783_s_at) / Fold change /veh VCAN (11757783_s_at) / RFU DDX43 (11728927_at) / Fold change /veh DDX43 (11728927_at) / RFU KRT8 (11758188_x_at) / Fold change /veh KRT8 (11758188_x_at) / RFU NKD1 (11759106_at) / Fold change /veh NKD1 (11759106_at) / RFU SRD5A1 (11742802_a_at) / Fold change /veh SRD5A1 (11742802_a_at) / RFU TPSAB1 /// TPSB2 (11721975_s_at) / Fold change /veh TPSAB1 /// TPSB2 (11721975_s_at) / RFU GSTM3 (11746129_a_at) / Fold change /veh GSTM3 (11746129_a_at) / RFU IL23R (11737362_x_at) / Fold change /veh IL23R (11737362_x_at) / RFU TMEM51 (11727254_a_at) / Fold change /veh TMEM51 (11727254_a_at) / RFU PIWIL2 (11732686_x_at) / Fold change /veh PIWIL2 (11732686_x_at) / RFU ORM1 (11744905_x_at) / Fold change /veh ORM1 (11744905_x_at) / RFU CCDC152 (11743942_at) / Fold change /veh CCDC152 (11743942_at) / RFU ECM1 (11717891_a_at) / Fold change /veh ECM1 (11717891_a_at) / RFU IL23R (11748794_a_at) / Fold change /veh IL23R (11748794_a_at) / RFU TNFAIP8L3 (11732012_x_at) / Fold change /veh TNFAIP8L3 (11732012_x_at) / RFU MBOAT4 (11741988_at) / Fold change /veh MBOAT4 (11741988_at) / RFU 11764193_at / Fold change /veh 11764193_at / RFU TMEM53 (11763286_at) / Fold change /veh TMEM53 (11763286_at) / RFU MAGEB2 (11727129_at) / Fold change /veh MAGEB2 (11727129_at) / RFU TMEM200A (11744735_a_at) / Fold change /veh TMEM200A (11744735_a_at) / RFU CCDC152 (11751479_a_at) / Fold change /veh CCDC152 (11751479_a_at) / RFU FAM211A (11726209_a_at) / Fold change /veh FAM211A (11726209_a_at) / RFU RGS16 (11746705_a_at) / Fold change /veh RGS16 (11746705_a_at) / RFU VCAN (11755009_s_at) / Fold change /veh VCAN (11755009_s_at) / RFU RHOB (11743442_s_at) / Fold change /veh RHOB (11743442_s_at) / RFU RGS16 (11720943_a_at) / Fold change /veh RGS16 (11720943_a_at) / RFU RGS16 (11720944_at) / Fold change /veh RGS16 (11720944_at) / RFU, VPS4B / Fold change vs veh, VPS4B / RFU, CREB1 / Fold change vs veh, CREB1 / RFU, DNAJC13 / Fold change vs veh, DNAJC13 / RFU, GNAQ / Fold change vs veh, GNAQ / RFU, CDK5R1 / Fold change vs veh, CDK5R1 / RFU, ZRANB3 / Fold change vs veh, ZRANB3 / RFU, CUL4A / Fold change vs veh, CUL4A / RFU, CCNY / Fold change vs veh, CCNY / RFU, UFL1 / Fold change vs veh, UFL1 / RFU, COG3 / Fold change vs veh, COG3 / RFU, DIAPH2 / Fold change vs veh, DIAPH2 / RFU, SKA2 / Fold change vs veh, SKA2 / RFU, AFF3 / Fold change vs veh, AFF3 / RFU, LMF1 / Fold change vs veh, LMF1 / RFU, IPO11 / Fold change vs veh, IPO11 / RFU, DFFB / Fold change vs veh, DFFB / RFU, FOXP1 / Fold change vs veh, FOXP1 / RFU, CARD8 / Fold change vs veh, CARD8 / RFU, STRN3 / Fold change vs veh, STRN3 / RFU, ADK / Fold change vs veh, ADK / RFU, RASSF2 / Fold change vs veh, RASSF2 / RFU, WIPF1 / Fold change vs veh, WIPF1 / RFU, LARP1B / Fold change vs veh, LARP1B / RFU, RASA1 / Fold change vs veh, RASA1 / RFU, RB1 / Fold change vs veh, RB1 / RFU, PPFIA1 / Fold change vs veh, PPFIA1 / RFU, MAT2A / Fold change vs veh, MAT2A / RFU, CCT5 / Fold change vs veh, CCT5 / RFU, WDR92 / Fold change vs veh, WDR92 / RFU, CUX1 / Fold change vs veh, CUX1 / RFU, TTC7A / Fold change vs veh, TTC7A / RFU, TMEM135 / Fold change vs veh, TMEM135 / RFU, DEPTOR / Fold change vs veh, DEPTOR / RFU, CPM / Fold change vs veh, CPM / RFU, DNAJB6 / Fold change vs veh, DNAJB6 / RFU, CACNA2D3 / Fold change vs veh, CACNA2D3 / RFU, DTX4 / Fold change vs veh, DTX4 / RFU, TFCP2 / Fold change vs veh, TFCP2 / RFU, GMCL1 /// GMCL1P1 / Fold change vs veh, GMCL1 /// GMCL1P1 / RFU, AEBP2 / Fold change vs veh, AEBP2 / RFU, SNHG1 /// SNORD22 /// SNORD25 /// SNORD26 /// SNORD27 /// SNORD28 /// SNORD29 /// SNORD31 / Fold change vs veh, SNHG1 /// SNORD22 /// SNORD25 /// SNORD26 /// SNORD27 /// SNORD28 /// SNORD29 /// SNORD31 / Fold change (Aza/veh), C12orf56 (ProbeSet 11735607_a_at) / Fold change (ACY-1035/veh), C12orf56 (ProbeSet 11735607_a_at) / Fold change (Aza/veh), FGFR1OP (ProbeSet 11751329_s_at) / Fold change (ACY-1035/veh), FGFR1OP (ProbeSet 11751329_s_at) / Fold change (Aza/veh), VPS36 (ProbeSet 11739960_a_at) / Fold change (ACY-1035/veh), VPS36 (ProbeSet 11739960_a_at) / RFU SYPL1 (11715823_x_at) / Fold change /veh SYPL1 (11715823_x_at) / RFU IGFBP7 (11715501_s_at) / Fold change /veh IGFBP7 (11715501_s_at) / RFU REEP3 (11722064_at) / Fold change /veh REEP3 (11722064_at) / RFU IGLL1 (11728026_x_at) / Fold change /veh IGLL1 (11728026_x_at): dose or concentration left out as unconfirmed
Conditions: ProbeSet 11748670_a_at; LIST B

In the case of Nc1ncn([C@@H]2O[C@H](CO)[C@@H](O)[C@H]2O)c(=O)n1 [azacitidine], the “Fold change vs veh, PIK3R1” value is reported as 1.03.
